Source: patent publication US20090031455A1 (priority 2004, published 2009)

Key:
plant pathogens = format: cell-based; conditions: for antimicrobial effect compared with perilla alcohol: FIGS. 7-8; for antimicrobial effect compared with geraniol: data not shown
recombinant FaPINH = assay: recombinant enzyme activity assay with yeast microsomes, GC-MS; conditions: for hydroxylation of alternative substrates by PINH: position analogous to α-pinene C10 (C7), FIGS. 3-4
Description: Microsome preparations were evaluated by CO-difference spectrum and were assayed for (−)-α-pinene hydroxylation. The reaction mixture for the recombinant enzyme activity assay, in a final volume of 1 ml, contained 50 mM Tris-HCl pH 7.4, 1 mM EDTA, 0.1 mM DTT, 0.8 units glucose-6-phosphate dehydrogenase, 2 mM glucose 6-phosphate, 5 μM FAD, 5 μM FMN, 1 mM NADPH, and 200 μL of microsomal preparation. 200 nmol (−)-α-pinene (in less than 10 μl, which has no detectable influence on the reaction) were added to the mixture to start the reaction, which was allowed to proceed for 2 hours at 30° C. with gentle shaking. Microsomes isolated from cells harboring the empty vector were employed as controls. The reaction was stopped by chilling the mixture on ice and extracting twice with 1.0-mL portions of pentane:diethyl ether (4:1). The combined extract was passed through a short column of silica gel and anhydrous MgSO4, after which the column was washed with 1.5 mL diethyl ether to remove residual compounds. After concentration under N2, the samples were analyzed by GC-MS. Samples (2 μL) were analyzed by an automated injector on a Hewlett-Packard 5890 series II gas chromatograph equipped with a 30 m×0.25 mm inner diameter fused silica column coated with a 0.25 μm film of HP 5MS (Hewlett-Packard), and a Hewlett-Packard 5972A Mass Selective Detector. GC oven temperature was programmed at an initial temperature of 45° C. for 1 min, with a ramp of 10° C. min-1 to 280° C., and a final time of 10 min. Full spectra were recorded for major reaction products, which were identified by comparing retention times with authentic standards and by comparing spectra with those of the NSB75K library, using the G1033A NIST probability based matching algorithm.

[1] = tested on: PINH expressed in Saccharomyces cerevisiae; assay: in vivo bioconversion assay with intact transgenic yeast cells expressing PINH; conditions: 500 μM (−)-α-pinene, 2 h at 30° C.
Description: Transformants were selected on SGI medium, while expression was carried out in YPL medium (induction with 2% galactose) (Pompon et al., 1996). Intact cells were harvested and used for an in vivo assay, by incubation in 50 mM Tris-HCl buffer (pH 7.4) containing 0.1 mM DTT and 1 mM EDTA in the presence of 500 μM (−)-α-pinene. The reaction was allowed to proceed for 2 h at 30° C. with gentle shaking. Controls containing no substrate, and cells containing vector without insert, were also used for in vivo assays. The assays were extracted and analysed using GC-MS as described under Example 3.

Pythium aphanidermatum = format: cell-based
Phytophthora infestans [2] = format: cell-based; conditions: P. infestans; for inhibition of mycelial growth: FIG. 8
Botrytis elliptica [3] = format: cell-based
Botrytis elliptica [4] = format: cell-based; remark: listed apart in the source
Phytophthora infestans [5] = format: cell-based; conditions: P. infestans; for inhibition of spore germination: FIG. 7

## C=C(C)[C@@H]1CC=C(C(=O)O)CC1 [perillic acid]
Plant pathogens
  antimicrobial effect compared with perilla alcohol: more effective than perilla alcohol

## Cc1ccc(C(C)C)cc1 [p-cymene]
Recombinant FaPINH
  hydroxylation of alternative substrates by PINH: hydroxylated at C7

## CC1=CCC(=C(C)C)CC1 [α-terpinolene]
Recombinant FaPINH
  hydroxylation of alternative substrates by PINH: hydroxylated at the same position

## CC1=CC=C(C(C)C)CC1 [α-terpinene]
Recombinant FaPINH
  hydroxylation of alternative substrates by PINH: hydroxylated at the same position

## CC1=CC[C@H]2C[C@@H]1C2(C)C [(−)-α-pinene]
Recombinant FaPINH; (−)- versus (+)-α-pinene
  substrate preference between enantiomers: preferred to (+)-α-pinene

## CC1=CCC2CC1C2(C)C (stereo not drawn) [α-pinene]
[1]
  conversion into myrtenol by intact yeast cells: efficiently converted
Recombinant FaPINH; microsomes from FaPINH expressing yeast, 2 hours at 30° C.
  substrate hydroxylated at C-10 to form myrtenol: over 50%

## CC(C)=CCC/C(C)=C/C(=O)O [geranic acid]
Plant pathogens
  antimicrobial effect compared with geraniol: more effective than geraniol

## C=C(C)C1CC=C(C=O)CC1 (stereo not shown) [perilla aldehyde]
Pythium aphanidermatum
  effectiveness against mycelial growth compared with linalool: more effective
  inhibition of mycelial growth: effectively inhibited
Phytophthora infestans [2]
  effectiveness against mycelial growth compared with linalool: more effective than linalool
  inhibition of mycelial growth: effectively inhibited
Phytophthora infestans [2]; more effective than linalool
  effectiveness against mycelial growth relative to linalool: 4-5 fold
Botrytis elliptica [3]
  effectiveness against mycelial growth compared with linalool: slightly more effective than linalool
  inhibition of mycelial growth: effectively inhibited
Botrytis elliptica [4]
  effect on spore germination at the concentration tested: completely blocks germination
  inhibition of spore germination: effective inhibitors
Phytophthora infestans [5]
  inhibition of spore germination: effective inhibitors
Phytophthora infestans [5]; FIG. 7A, more effective than linalool
  effectiveness against spore germination relative to linalool: about 10 fold
Plant pathogens
  antimicrobial effect compared with perilla alcohol: more effective than perilla alcohol

## C=C(C)[C@@H]1CC=C(CO)CC1 [perilla alcohol]
Pythium aphanidermatum
  effectiveness against mycelial growth compared with linalool: more effective
  inhibition of mycelial growth: effectively inhibited
Phytophthora infestans [2]
  effectiveness against mycelial growth compared with linalool: more effective than linalool
  inhibition of mycelial growth: effectively inhibited
Botrytis elliptica [3]
  effectiveness against mycelial growth compared with linalool: slightly more effective than linalool
  inhibition of mycelial growth: effectively inhibited
Botrytis elliptica [4]
  effectiveness against spore germination relative to linalool and myrtenol: about 2 fold
  inhibition of spore germination: effective inhibitors
Phytophthora infestans [5]
  inhibition of spore germination: effective inhibitors

## CC1(C)C2CC=C(CO)C1C2 (stereo not shown) [myrtenol]
Pythium aphanidermatum
  effectiveness against mycelial growth compared with linalool: less effective than linalool
  inhibition of mycelial growth: effectively inhibited
Phytophthora infestans [2]
  effectiveness against mycelial growth compared with linalool: more effective than linalool
  inhibition of mycelial growth: effectively inhibited
Botrytis elliptica [3]
  effectiveness against mycelial growth compared with linalool: slightly more effective than linalool
  inhibition of mycelial growth: effectively inhibited
Botrytis elliptica [4]
  inhibition of spore germination: effective inhibitors
Phytophthora infestans [5]
  inhibition of spore germination: effective inhibitors

## CC1=CC[C@H](C(C)C)C=C1 [α-phellandrene]
Recombinant FaPINH
  hydroxylation of alternative substrates by PINH: hydroxylated at the same position

## C=C(C)[C@H]1CC=C(C)CC1 [limonene]
Recombinant FaPINH
  hydroxylation of alternative substrates by PINH: efficiently hydroxylated

## CC(C)=CCCC(C)=CC=O [citral]
Plant pathogens
  antimicrobial effect compared with geraniol: more effective than geraniol
